Reference: PubChem BioAssay (NCI)
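Test compounds were applied to cells in 96-well plates for 48 hours at 5 doses. At the GI50, growth is halved. The concentration for full growth arrest is given as TGI.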

Tests used:
Assay in all cases: NCI anticancer screen, dose series, 48 h
HS 578T breast = test system: HS 578T breast
MDA-N = test system: MDA-N
MDA-MB-231 breast = test system: MDA-MB-231 breast
PC-3 prostate = test system: PC-3 prostate
DLD-1 colon = test system: DLD-1 colon
DMS 114 small cell lung = test system: DMS 114 small cell lung
LXFL 529 NSCLC = test system: LXFL 529 NSCLC

Structure (SMILES)	TGI (HS 578T breast)	TGI (MDA-N)	TGI (MDA-MB-231 breast)	TGI (PC-3 prostate)	GI50 (HS 578T breast)	GI50 (MDA-MB-231 breast)	GI50 (PC-3 prostate)	TGI (DLD-1 colon)	TGI (DMS 114 small cell lung)	TGI (LXFL 529 NSCLC)	GI50 (MDA-N)
N=Nc1c(OC(=O)Nc2ccccc2)[nH]c2ccccc12	> 100 µM	61.8 µM	41.6 µM	34.4 µM							
COc1cc(N2CCN(C(C)C)CC2)ccc1Nc1nc(Nc2cccc3ncccc23)c2cc[nH]c2n1	24.3 µM		11 µM	> 25 µM	5.42 µM	4.37 µM	8990 nM				
CC(C)(C)[Si](C)(C)OCC1CCC(n2cnc3c(=O)[nH]cnc32)O1 (stereo not drawn)	> 100 µM	> 100 µM	> 100 µM	> 100 µM							
CCNC(C)(C)C(SS)c1ccc(Br)cc1 (stereo not drawn)	> 100 µM	> 100 µM	> 100 µM	> 100 µM							
COc1ccc(C[n+]2c3ccccc3n3c4ccc(N)cc4ccc32)c(OC)c1OC	35.2 µM		31.7 µM	13.7 µM	5.81 µM	9.25 µM	1820 nM				
Cc1c(C)c2c(c(C)c1NC(=O)/C=C\C(=O)O)CCC(C)(CCCC(C)CCCC(C)CCCC(C)C)O2 (stereo not drawn)	4.97 µM		3.55 µM	2.91 µM	1.89 µM	1.94 µM	1380 nM				
Cc1oc2nc[nH]c(=O)c2c1C(=O)/C=C/c1ccc(Cl)cc1	> 100 µM		14.6 µM	8.76 µM	3.66 µM	2.64 µM	2490 nM				
Cc1cc2cccnc2c2ncccc12	47.9 µM		> 100 µM	34.4 µM	4.04 µM	0.74 µM	1570 nM				
O=C(C/C(=N\NC(=O)C[n+]1ccccc1)C(=O)Nc1nc2ccc([N+](=O)[O-])cc2s1)CC(c1ccccc1)c1c(O)c2ccccc2oc1=O (stereo not drawn)								> 100 µM	> 100 µM		
O=C(/C=C1\C(=O)N(Cc2ccc([N+](=O)[O-])cc2)c2ccccc21)c1ccc(OCCN2CCCCC2)cc1	6.09 µM		2.67 µM	3.52 µM	1.71 µM	1.3 µM	1740 nM				
CN1CCN(CCCOc2cccc3nc(Nc4ccc(Cl)c(F)c4)ccc23)CC1	5.77 µM		3.39 µM	3.41 µM	2.12 µM	1.68 µM	1760 nM				
O=c1oc2cc(N=Cc3ccccc3Cl)ccc2c2ccccc12	> 100 µM	> 100 µM	> 100 µM	> 100 µM							
N#CC(C#N)=Cc1c(-c2ccccc2)[nH]c2ccccc12	8.49 µM		30.3 µM	> 70.8 µM	2.31 µM	1.42 µM	2900 nM				
COc1cc2c(c(OC)c1OC)C(=O)CC(c1cccc(NC(=O)c3ccc(Br)cc3)c1)O2 (stereo not drawn)	> 100 µM			8.59 µM	4.1 µM		2330 nM				
C=C1C(=O)O[C@H]2[C@H]1CC/C(Cn1cc(CNCCc3c[nH]c4ccc(Cl)cc34)nn1)=C\CC[C@@]1(C)O[C@@H]21	53.1 µM		16.2 µM	27 µM	11.1 µM	4.04 µM	8960 nM				
COc1cc(/C=N/Nc2ncnc3c2cnn3C(C)C)ccc1O	24.8 µM		> 25 µM	> 25 µM	5.04 µM	6.27 µM	5070 nM				
[N-]=[N+]=Nc1ccc(CCN2CCN(c3cccc(C(F)(F)F)c3)CC2)cc1I										> 100 µM	
Oc1c(C(Nc2cccc3ccccc23)c2ccccc2)ccc2cccnc12 (stereo not drawn)	> 100 µM		70.8 µM	> 100 µM	7.37 µM	12 µM	5160 nM				
NC(=O)c1cc(-c2ccncc2)cc(-c2ccccc2)c1N	> 23.6 µM		> 25 µM	> 25 µM	6.35 µM	12.2 µM	> 22300 nM				
COc1ccc(-c2nn(-c3ccc(NC(=O)c4ccc(Cl)c(C(F)(F)F)c4)cc3)cc2-c2ccncc2)cc1Cl	0.696 µM		1.35 µM	> 100 µM	0.201 µM	0.317 µM	669 nM				
NC1=NC(c2ccc(Cl)cc2)N(c2ccc(S(=O)(=O)Nc3ncccn3)cc2)C(N)=N1 (stereo not drawn)	> 100 µM	> 100 µM	> 100 µM	> 100 µM							
CCN(CC)C(=O)CC1=C(C)/C(=C/c2[nH]c(-c3ccc[nH]3)cc2OC)N=C1C	7.97 µM		0.909 µM	33 µM	0.656 µM	0.213 µM	350 nM				
O=C1c2ccccc2NC(c2cc(Cl)cc(Cl)c2O)N1CCc1ccccn1 (stereo not drawn)	> 100 µM	> 100 µM	> 100 µM	> 100 µM							

Structure (SMILES)	TGI (HS 578T breast)	TGI (MDA-N)	TGI (MDA-MB-231 breast)	TGI (PC-3 prostate)	GI50 (HS 578T breast)	GI50 (MDA-MB-231 breast)	GI50 (PC-3 prostate)	TGI (DLD-1 colon)	TGI (DMS 114 small cell lung)	TGI (LXFL 529 NSCLC)	GI50 (MDA-N)
COc1cc(-c2nn(-c3ccc(NC(=O)Nc4ccc(Cl)c(Cl)c4)cc3)cc2-c2ccncc2)ccc1Cl	11.9 µM		7.7 µM	> 100 µM	3.22 µM	2.62 µM	2890 nM				
CN(CCC#N)c1ccc(/C=C(\C#N)c2cccc(C(F)(F)F)c2)cc1	> 100 µM		> 100 µM	> 100 µM	4.3 µM	4.56 µM	4070 nM				
CC1(C)C(c2ccccc2)=NN(O)c2ccccc21								> 100 µM		> 100 µM	
O=C(/C=C/C12c3ccccc3C(c3ccccc31)C1C(=O)N(c3ccccc3)C(=O)C12)c1ccc(Cl)cc1 (stereo not drawn)	5.92 µM		3.9 µM	8.27 µM	1.82 µM	1.64 µM	1420 nM				
C=CCn1c(=O)c2cnc(Nc3ccc(N4CCN(C)CC4)cc3)nc2n1-c1ccc2c(n1)[C@@](O)(CC)CC2	12.4 µM		4.19 µM	> 100 µM	0.755 µM	0.558 µM	2240 nM				
Cc1csc(/C=N/NC(=O)c2nnn(-c3ccnc4c(C(F)(F)F)cccc34)c2C)c1	> 100 µM		> 100 µM	> 100 µM	> 100 µM	31.7 µM	41100 nM				
CCCCN(CCCC)c1ccc(C(=N)c2ccc(N(C)C)cc2)cc1	3.28 µM		2.88 µM	1.67 µM	1.18 µM	1.32 µM	409 nM				
CC[C@@]1(OC(=O)CN)C(=O)OCc2c1cc1n(c2=O)Cc2cc3cc4c(cc3nc2-1)OCO4	> 100 µM	2.27 µM	> 23.7 µM	> 100 µM	0.399 µM	0.787 µM	27.5 nM				< 0.01 µM
Cc1cc(Cc2cc(C)c(O)c(C)c2)cc(C)c1O	12.5 µM		38.3 µM	> 100 µM	2.58 µM	6.85 µM	14800 nM				
Cc1cc(N2CCN(C)CC2)nc(NCc2cc(Nc3ccnc4cc(Cl)ccc34)ccc2F)n1	7.97 µM			> 100 µM	2.82 µM		3510 nM				
CC(=O)Nc1ccc(-c2c3nc(c(-c4cc5ccccc5[n+](C)c4)c4ccc([nH]4)c(-c4ccc(NC(C)=O)cc4)c4nc(c(-c5cc6ccccc6[n+](C)c5)c5ccc2[nH]5)C=C4)C=C3)cc1	> 50 µM	36.7 µM	29.7 µM	> 50 µM	22.9 µM	8.1 µM	15100 nM				11.2 µM
Cc1cc(=O)oc2c(CN3CCCCC3)c(O)ccc12	> 100 µM	> 100 µM	> 100 µM	> 100 µM							
COc1cc([N+](=O)[O-])c(S(=O)(=O)O)cc1NS(=O)(=O)c1ccc(C)cc1	> 100 µM	> 100 µM	> 100 µM	> 100 µM							
CC1=CC[C@@H]2C(C)(C)C(=O)CC[C@@]2(C)[C@@H]1COc1ccc2ccc(=O)oc2c1	> 100 µM		> 100 µM	31.8 µM	40.5 µM	25.5 µM	5410 nM				
COc1ccc2c(c1)[C@]1(C[C@H]1c1ccc3c(/C=C/c4ccc(CN5C[C@@H](C)O[C@@H](C)C5)cc4)n[nH]c3c1)C(=O)N2	49.6 µM		> 54 µM	> 100 µM	4.84 µM	4.35 µM	2540 nM				
Cc1onc(-c2c(F)cccc2Cl)c1-c1ncc(-c2ccc(Cl)cc2)o1	> 100 µM		> 100 µM	> 100 µM	14.1 µM	6.5 µM	4210 nM				
CNC(=S)N/N=C1\CC(c2ccccc2)Oc2ccccc21 (stereo not drawn)								> 100 µM		> 100 µM	
O=C(Cn1c(=O)c(-c2ccccc2)nc2ccccc21)c1ccc(Cl)cc1	> 100 µM		> 100 µM	> 100 µM	43.5 µM	40.9 µM	34600 nM				
CCOC(=O)C1=C(C)NC2SC(=O)/C(=C\c3ccccc3Cl)N2C1c1ccccc1 (stereo not drawn)	> 100 µM		> 100 µM	> 100 µM	> 100 µM	> 100 µM	73300 nM				
CC(N=C(N)N)C(=O)O (stereo not drawn)	> 100 µM	> 100 µM	> 100 µM	> 100 µM							
COc1cc2ccccc2c2cc([N+](=O)[O-])oc12	10.1 µM	0.849 µM	5.8 µM	> 100 µM							
CN(Cc1cnc(N)nc1N)c1ccc(C(=O)O)cc1	> 100 µM		> 100 µM	> 100 µM	> 100 µM	> 100 µM	> 100000 nM				
